Several values for one entry are separate records, joined by “and”; a condition that tells them apart may be missing. Identical values can stand only once.
How the values were obtained:
inflamed rat paw model = experiment: inflamed rat paw model: pain threshold after local carrageenan (Randall and Selitto); type: in vivo; conditions: for antagonism of the anti-nociceptive effect of protein C: β-blocking agent given with protein C; for Pain threshold: 3 hrs after carrageenan, protein C 800 U/kg
From the text: See, Kirchhoff et al., Neuroscience Lett. 111:206-210 (1990). Subcutaneous administration of carrageenan into the rat paw produces an inflammatory edema characterized by infiltration of neutrophils, plasma extravasation, release and synthesis of histamine, bradykinins and prostaglandin E2. Id. As such, the rat paw is a recognized model of the inflammatory process and may be utilized for studying the nociceptive effects attendant thereto. Id. Thus, the rat paw provides a recognized model for evaluating the anti-nociceptive effects of protein C and/or the activation peptide of protein C according to the present invention.
The pain threshold was measured in a manner analogous to the method described by Randall and Selitto (Randall LO and Selitto JJ: A method for measurement of analgesic activity on inflamed tissue, Arch. Int. Pharmacodyn. 111, 409-419, 1957). To this end, a mercury manometer was connected to a 10 ml syringe whose plunger was equipped with a short bullet-shaped peg. Increasing pressure was applied to the rat's paw through this syringe (20 mmHg/s). The pain threshold was defined as the pressure in mmHg required to induce a flight (struggle) reaction.
Female Sprague-Dawley rats weighing between 250 and 350 g were used. Inflammation was produced by the intraplanter (i.pl.) injection of 3 mg carrageenan (Sigma Chemical Co., Cat. No., C-1013) suspended in 100 μl isotonic saline solution (0.9%) into the rat's paw.
The pain threshold was measured before (control value) and every hour up to six hours after the injection of carrageenan. The pain threshold measured after carrageenan injection was expressed in percent of the control value.
Unless otherwise specified, protein C was intravenously injected into a vein of the tail immediately upon the carrageenan injection. The injection volume was 2 ml/kg.
A dose response curve for protein C administered i.v. and protein C (i.v.) immediately followed by a solution of 1 mg/kg antibody HPC-4 (i.v.) was determined. The experiments were carried out essentially as set forth in Example 4.
The anti-nociceptive effects of the activation peptide of protein C (SEQ. ID. NO. 1) prepared as described in Example 7 were determined essentially as described in Examples 4 and 6. In the test animals, the […], each, in a constant injection volume of 2 ml/kg, simultaneously with intraplantar (i.pl.) administration of carrageenan into the rat's paw to induce an inflammatory response and pain. In a second set of test animals, antibody HPC-4 (1 mg/kg) was administered i.v. immediately following i.v. administration of the peptide (SEQ. ID. NO. 1). The anti-nociceptive effects of the peptide (SEQ. ID. NO. 1) administration and antagonism thereof by antibody HPC-4 as measured 6 hours later are shown in FIG. 3.

[1] = tested on: thrombus formation on prosthetic vascular grafts; conditions: infusion; Gruber et al. 1989; cited from earlier work
endotoxin shock = conditions: Taylor et al. 1987; cited from earlier work
coronary blood flow = conditions: intracoronary administration; cited from earlier work
perivascular leukocytes = experiment: histological examination of the rat paws; type: in vivo; conditions: rat paws after protein C, compared to untreated animals
From the text: Thus, protein C appears to have an effect on vessel permeability, which allows the migration of leukocytes through the blood vessel into the perivascular region.

[2] = tested on: histamine-induced enhanced vascular permeability; experiment: histamine-induced enhanced vascular permeability (Evan's Blue wheals); type: in vivo, guinea pigs
Description: (§1) The effect of protein C on capillary leakage in guinea pigs was studied in order to confirm the efficacy of protein C in antagonizing enhanced vessel permeability in anesthetized guinea pigs. The study was carried out as follows:
(§2) After intravenous administration of Evan's Blue, anesthetized guinea pigs received either a protein C concentrate or a formulation buffer. Thereafter, the test animals were treated with histamine or thrombin intracutaneously to induce enhanced vessel permeability, or with saline as a control. The animals were then examined visually for the occurrence of discoloration of the resulting wheals. The results are depicted in FIG. 4 (histamine treatment, protein C or saline), FIG. 5 (thrombin treatment, protein C or saline) and FIG. 6 (thrombin treatment, buffer or saline).
(§3) In these studies, a colorless wheal was recorded as a negative observation (i.e., no disturbance in permeability), whereas a blue skin coloration at the injection site was defined as a positive observation (i.e. increased vessel permeability). The percentage of positive wheals among total wheals produced by the same substance and does within each group of treated animals (n=12 per treatment group) was calculated. […]

[3] = tested on: thrombin-induced enhanced vascular permeability; experiment: thrombin-induced enhanced vascular permeability (Evan's Blue wheals); type: in vivo, guinea pigs
Description: as §1, §2, §3

[4] = protein C activity, aminolytic assay after activation by Protac; type: biochemical; conditions: finished lyophilized preparation; 1 unit = protein C activity in 1 ml normal plasma
Description: The prothrombin complex concentrate was dissolved in the absorption buffer of Example 1, with about 10 g of the prothrombin complex concentrate being employed for a 20 ml monoclonal antibody column. Subsequently, the dissolved prothrombin complex concentrate was filtered, centrifuged at 20,000 r.p.m. for 15 min. and sterilely filtered through a 0.8 μm filter. The sterilely filtered and dissolved prothrombin complex concentrate was applied to the column at a flow rate of 10 ml/h. Subsequently, the column was washed free of protein with the washing buffer of Example 1, the bound protein C was eluted by means of the elution buffer of Example 1 at a flow rate of 5 ml/h and the fractions containing eluted protein C were collected and pooled. The eluted protein C was dialyzed against a buffer (0.2 mol/1 Tris, 0.15 mol glycine and 1 mmol EDTA, pH 8.3). Protein C antigen concentration was determined using the method described by Laurell, and protein C activity was determined using Protac activation.
The lyophilized, virus inactivated material was then dissolved in a sterile isotonic NaCl solution and any antibodies or serum amyloid P potentially present in the preparation were eliminated by means of ion exchange chromatography on a Q-Sepharose column. […] Neither murine immunoglobulin nor Factors II, VII, IX and X could be detected. […]

## CC(Cc1ccc(O)cc1)NCC(O)c1cc(O)cc(O)c1 (centres unmarked) [fenoterol, reference compound]
Inflamed rat paw model; i.v., either 5 mg/kg at the beginning of the assay or 3 mg/kg at the 3 hr time point
  anti-nociceptive effect: marked anti-nociceptive effect

## CC(C)NCC(O)COc1cccc2[nH]ccc12 (centres unmarked) [pindolol, reference compound]
Inflamed rat paw model; reserpine and alpha-methyl-p-tyrosine treated
  antagonism of the effect of protein C in sympathectomized animals: completely antagonizes the effect of protein C
Inflamed rat paw model
  antagonism of the anti-nociceptive effect of protein C: antagonize the effect of protein C in a dose-dependent manner

## CC(C)NCC(O)COc1cccc2ccccc12 (centres unmarked) [propranolol, reference compound]
Inflamed rat paw model
  antagonism of the anti-nociceptive effect of protein C: antagonizes the anti-nociceptive effect of protein C

## NH2 -Asp-Thr-Glu-Asp-Gln-Glu-Asp-Gln-Val-Asp-Pro-Arg-COOH (H-DTEDQEDQVDPR-OH) [activation peptide of protein C]
Inflamed rat paw model; peptide i.v. 3.125 to 100 μg/kg, measured 6 hours later, FIG. 3
  anti-nociceptive effect: has an anti-nociceptive effect

## activated protein C
[1]
  thrombotic occlusion: Thrombotic occlusion was prevented
Endotoxin shock
  protection against coagulopathic and lethal effects of endotoxin shock: protect animals against the coagulopathic and lethal effects of endotoxin shock
Coronary blood flow
  coronary blood flow: increase in coronary blood flow

## protein C: Highly purified human protein C zymogen from prothrombin complex concentrate, purified by monoclonal antibody affinity chromatography, virus inactivated
Inflamed rat paw model; % of the pain threshold (control value)
  Pain threshold: 65 ± 2.0% and 60 ± 6%
Inflamed rat paw model; animals treated with reserpine and alpha-methyl-p-tyrosine
  Pain threshold: 106.7 ± 18.1%
Inflamed rat paw model; protein C i.v. immediately upon carrageenan, 8 to 800 U/kg, FIG. 1
  anti-nociceptive effect: significant, dose-dependent anti-nociceptive effect
Inflamed rat paw model; protein C intravenously, carrageenan intraplantar
  signs of inflammation, such as oedema: signs of inflammation, such as oedema, were reduced
Inflamed rat paw model; reserpine 7.5 mg/kg i.p. and alpha-methyl-p-tyrosine 250 mg/kg i.p.
  anti-nociceptive effect after chemical sympathectomy: still acts as a highly effective anti-nociceptive
Inflamed rat paw model; subcutaneous administration
  anti-nociceptive effect: also detectable with subcutaneous administration
Perivascular leukocytes
  number of perivascular leukocytes: reduced number of perivascular leukocytes compared to the untreated animals
[2]; 800 IU protein C/Kg i.v., % positive wheals, FIG. 4
  shift of the histamine dose-response curve to the right (factor): 4
[2]; pretreatment with protein C
  effect on histamine-increased endothelial permeability: effective in preventing the effects of both histamine and thrombin on increased endothelial permeability
[3]; 800 IU protein C/Kg i.v., % positive wheals, FIG. 5
  shift of the thrombin dose-response curve to the right (factor): 9
[3]; pretreatment with protein C
  effect on thrombin-increased endothelial permeability: effective in preventing the effects of both histamine and thrombin on increased endothelial permeability
[4]
  specific activity: 14 units protein C per mg

Reference: patent publication US5571786A, “Use of protein C or the activation peptide of protein C for preparing a pharmaceutical preparation” (Immuno Aktiengesellschaft, priority 1990, dated 1996)
